Data reported in patent publication US10717716B2, “1,3,4-oxadiazole derivative compounds as histone deacetylase 6 inhibitor, and the pharmaceutical composition comprising the same” (Chong Kun Dang Pharmaceutical Corp., priority 2015, dated 2020).
pIC50: −log10 of the molar value.

Biological target: T1, human recombinant HDAC6 (Homo sapiens, UniProt Q9UBN7)
T1 construct: purchased Calbiochem 382180
T1 sequence (Q9UBN7 1-1215): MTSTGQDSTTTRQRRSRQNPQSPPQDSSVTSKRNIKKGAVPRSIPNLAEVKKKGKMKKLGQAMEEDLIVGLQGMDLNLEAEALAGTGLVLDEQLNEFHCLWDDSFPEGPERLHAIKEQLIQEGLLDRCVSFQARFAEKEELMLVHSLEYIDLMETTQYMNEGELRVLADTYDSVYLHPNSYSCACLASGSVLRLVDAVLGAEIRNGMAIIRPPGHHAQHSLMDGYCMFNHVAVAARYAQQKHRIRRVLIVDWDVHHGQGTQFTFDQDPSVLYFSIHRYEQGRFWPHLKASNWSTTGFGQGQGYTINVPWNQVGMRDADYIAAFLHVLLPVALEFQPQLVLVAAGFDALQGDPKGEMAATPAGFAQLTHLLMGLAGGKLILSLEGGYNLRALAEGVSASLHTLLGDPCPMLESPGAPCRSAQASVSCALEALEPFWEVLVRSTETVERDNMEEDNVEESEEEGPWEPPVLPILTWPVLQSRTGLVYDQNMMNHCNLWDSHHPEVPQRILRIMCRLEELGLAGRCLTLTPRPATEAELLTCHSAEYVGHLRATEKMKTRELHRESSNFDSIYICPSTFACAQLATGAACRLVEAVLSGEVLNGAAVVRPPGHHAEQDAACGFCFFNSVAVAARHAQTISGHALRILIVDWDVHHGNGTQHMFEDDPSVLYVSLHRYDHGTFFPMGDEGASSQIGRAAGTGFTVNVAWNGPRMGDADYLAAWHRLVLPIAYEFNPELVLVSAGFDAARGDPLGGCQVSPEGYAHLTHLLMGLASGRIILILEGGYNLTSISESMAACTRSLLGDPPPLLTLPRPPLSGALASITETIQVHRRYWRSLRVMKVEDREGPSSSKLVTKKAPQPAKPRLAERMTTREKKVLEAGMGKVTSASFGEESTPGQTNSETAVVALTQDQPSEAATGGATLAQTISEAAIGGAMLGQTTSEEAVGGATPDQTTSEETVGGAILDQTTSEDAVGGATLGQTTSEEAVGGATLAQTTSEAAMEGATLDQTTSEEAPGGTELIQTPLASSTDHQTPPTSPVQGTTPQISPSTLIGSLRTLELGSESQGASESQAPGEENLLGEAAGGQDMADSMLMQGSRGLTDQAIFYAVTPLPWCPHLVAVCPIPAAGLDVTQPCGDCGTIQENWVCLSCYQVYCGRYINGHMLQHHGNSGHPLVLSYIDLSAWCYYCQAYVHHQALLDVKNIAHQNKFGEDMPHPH
Experiment: HDAC6 enzyme activity inhibition assay (HDAC Fluorimetric Drug Discovery Kit)
Assay type: biochemical
Conditions: for HDAC6 selectivity (fold): HDAC6 over HDAC1; for pIC50: human recombinant HDAC6, same protocol as HDAC1, read-out: HDAC6
How it was run: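 Fluorimetric deacetylase assay: 5-fold serial compound dilutions, 0.3 μg recombinant human enzyme (HDAC1 or HDAC6, same protocol), 10 μM Fluor de Lys-SIRT1 substrate, 60 min at 30 °C. Signal developed 30 min, measured at 360/460 nm; IC50 values derived.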

HDAC6 selectivity (fold)	pIC50	Compound
8	5.88	CC1(C)Cc2cccc(N(Cc3ccc(-c4nnc(C(F)F)o4)cc3F)C(=O)N3CCS(=O)(=O)CC3)c2O1 [Compound 21798, N-(4-(5-(Difluoromethyl)-1,3,4-oxadiazol-2-yl)-2-fluorobenzyl)-N-(2,2-dimethyl-2,3-dihydrobenzofuran-7-yl)thiomorpholine-4-carboxamide 1,1-dioxide]
33	6.52	Cn1ccc2cc(N(Cc3ccc(-c4nnc(C(F)F)o4)cc3F)C(=O)N3CCS(=O)(=O)CC3)ccc21 [Compound 21799, N-(4-(5-(difluoromethyl)-1,3,4-oxadiazol-2-yl)-2-fluorobenzyl)-N-(1-methyl-1H-indol-5-yl)thiomorpholine-4-carboxamide 1,1-dioxide]
261	7.42	O=C(N1CCS(=O)(=O)CC1)N(Cc1ccc(-c2nnc(C(F)F)o2)cc1F)c1ccc(F)cc1 [Compound 21806, N-(4-(5-(difluoromethyl)-1,3,4-oxadiazol-2-yl)-2-fluorobenzyl)-N-(4-fluorophenyl)thiomorpholine-4-carboxamide 1,1-dioxide]
256	7.41	O=C(N1CCS(=O)(=O)CC1)N(Cc1ccc(-c2nnc(C(F)F)o2)cc1F)c1cccc(F)c1 [Compound 21807, N-(4-(5-(difluoromethyl)-1,3,4-oxadiazol-2-yl)-2-fluorobenzyl)-N-(3-fluorophenyl)thiomorpholine-4-carboxamide 1,1-dioxide]
174	7.24	O=C(N1CCS(=O)(=O)CC1)N(Cc1ccc(-c2nnc(C(F)F)o2)cc1F)c1ccc(Cl)cc1 [Compound 21809, N-(4-chlorophenyl)-N-(4-(5-(difluoromethyl)-1,3,4-oxadiazol-2-yl)-2-fluorobenzyl)thiomorpholine-4-carboxamide 1,1-dioxide]
144	7.15	CCn1ncc2ccc(N(Cc3ccc(-c4nnc(C(F)F)o4)cc3F)C(=O)N3CCS(=O)(=O)CC3)cc21 [Compound 21811, N-(4-(5-(Difluoromethyl)-1,3,4-oxadiazol-2-yl)-2-fluorobenzyl)-N-(1-ethyl-1H-indazol-6-yl)thiomorpholine-4-carboxamide 1,1-dioxide]
94	6.97	CC(C)n1ncc2ccc(N(Cc3ccc(-c4nnc(C(F)F)o4)cc3F)C(=O)N3CCS(=O)(=O)CC3)cc21 [Compound 21812, N-(4-(5-(Difluoromethyl)-1,3,4-oxadiazol-2-yl)-2-fluorobenzyl)-N-(1-isopropyl-1H-indazol-6-yl)thiomorpholine-4-carboxamide 1,1-dioxide]
30	6.48	CC(C)c1nc2ccc(N(Cc3ccc(-c4nnc(C(F)F)o4)cc3F)C(=O)N3CCS(=O)(=O)CC3)cc2s1 [Compound 21813, N-(4-(5-(Difluoromethyl)-1,3,4-oxadiazol-2-yl)-2-fluorobenzyl)-N-(2-isopropylbenzo[d]thiazol-6-yl)thiomorpholine-4-carboxamide 1,1-dioxide]
382	7.59	O=C(N1CCOCC1)N(Cc1ccc(-c2nnc(C(F)F)o2)cc1F)c1ccc(F)cc1 [Compound 21841, N-(4-(5-(difluoromethyl)-1,3,4-oxadiazol-2-yl)-2-fluorobenzyl)-N-(4-fluorophenyl)morpholine-4-carboxamide]
461	7.66	O=C(N1CCOCC1)N(Cc1ccc(-c2nnc(C(F)F)o2)cn1)c1cccc(F)c1 [Compound 21843, N-((5-(5-(difluoromethyl)-1,3,4-oxadiazol-2-yl)pyridin-2-yl)methyl)-N-(3-fluorophenyl) morpholine-4-carboxamide]

The next lines start with the compound.

Compound	HDAC6 selectivity (fold)	pIC50
O=C(N1CCS(=O)(=O)CC1)N(Cc1ccc(-c2nnc(C(F)F)o2)cc1F)c1ccc(F)cn1 [Compound 21653, N-(4-(5-(difluoromethyl)-1,3,4-oxadiazol-2-yl)-2-fluorobenzyl)-N-(5-fluoropyridin-2-yl)thiomorpholine-4-carboxamide 1,1-dioxide]	246	7.39
CCN1CCN(C(=O)N(Cc2ccc(-c3nnc(C(F)F)o3)cc2F)c2cccc(F)c2F)CC1 [Compound 21655, N-(4-(5-(difluoromethyl)-1,3,4-oxadiazol-2-yl)-2-fluorobenzyl)-N-(2,3-difluorophenyl)-4-ethylpiperazine-1-carboxamide]	690	7.82
CCN1CCN(C(=O)N(Cc2ccc(-c3nnc(C(F)F)o3)cc2F)c2ccc(C)c(Cl)c2)CC1 [Compound 21657, N-(3-chloro-4-methylphenyl)-N-(4-(5-(difluoromethyl)-1,3,4-oxadiazol-2-yl)-2-fluorobenzyl)-4-ethylpiperazine-1-carboxamide]	226	7.36
CN1CCN(C(=O)N(Cc2ccc(-c3nnc(C(F)F)o3)cc2F)c2cccc3cnn(C)c23)CC1 [Compound 21707, N-(4-(5-(Difluoromethyl)-1,3,4-oxadiazol-2-yl)-2-fluorobenzyl)-4-methyl-N-(1-methyl-1H-indazol-7-yl)piperazine-1-carboxamide]	199	7.30
Cn1ncc2cccc(N(Cc3ccc(-c4nnc(C(F)F)o4)cc3F)C(=O)N3CCS(=O)(=O)CC3)c21 [Compound 21708, N-(4-(5-(Difluoromethyl)-1,3,4-oxadiazol-2-yl)-2-fluorobenzyl)-N-(1-methyl-1H-indazol-7-yl)thiomorpholine-4-carboxamide 1,1-dioxide]	167	7.22
O=C(N1CC2(COC2)C1)N(Cc1ccc(-c2nnc(C(F)F)o2)cc1F)c1cccc(F)c1 [Compound 21759, N-(4-(5-(difluoromethyl)-1,3,4-oxadiazol-2-yl)-2-fluorobenzyl)-N-(3-fluorophenyl)-2-oxa-6-azaspiro[3.3]heptane-6-carboxamide]	405	7.60
Cc1cccc(N(Cc2ccc(-c3nnc(C(F)F)o3)cc2F)C(=O)N2CC3(COC3)C2)c1 [Compound 21760, N-(4-(5-(difluoromethyl)-1,3,4-oxadiazol-2-yl)-2-fluorobenzyl)-N-(m-tolyl)-2-oxa-6-azaspiro[3.3]heptane-6-carboxamide]	215	7.34
CCN1CC2(CCN(C(=O)N(Cc3ccc(-c4nnc(C(F)F)o4)cc3F)c3ccc4cnn(C)c4c3)CC2)C1 [Compound 21765, N-(4-(5-(Difluoromethyl)-1,3,4-oxadiazol-2-yl)-2-fluorobenzyl)-2-ethyl-N-(1-methyl-1H-indazol-6-yl)-2,7-diazaspiro[3.5]nonane-7-carboxamide]	88	6.94
O=C(N1CCOCC1)N(Cc1ccc(-c2nnc(C(F)F)o2)nc1)c1ccc(F)c(Cl)c1 [Compound 21766, N-(3-Chloro-4-fluorophenyl)-N-((6-(5-(difluoromethyl)-1,3,4-oxadiazol-2-yl)pyridin-3-yl)methyl)morpholine-4-carboxamide]	88	6.94
O=C(N1CCS(=O)(=O)CC1)N(Cc1ccc(-c2nnc(C(F)F)o2)nc1)c1ccc(F)c(Cl)c1 [Compound 21767, N-(3-Chloro-4-fluorophenyl)-N-((6-(5-(difluoromethyl)-1,3,4-oxadiazol-2-yl)pyridin-3-yl)methyl)thiomorpholine-4-carboxamide 1,1-dioxide]	9	5.94
O=C(N1CCS(=O)(=O)CC1)N(Cc1ccc(-c2nnc(C(F)F)o2)cc1F)c1ccc2c(c1)CCC2 [Compound 21797, N-(4-(5-(Difluoromethyl)-1,3,4-oxadiazol-2-yl)-2-fluorobenzyl)-N-(2,3-dihydro-1H-inden-5-yl)thiomorpholine-4-carboxamide 1,1-dioxide]	37	6.57
